{"source": "paper PMC12484785", "about": "“Structure and activation mechanism of human sweet taste receptor” (Cell Research, 2025)", "key": {"TAS1R2 [1]": {"biological_target": "T1, TAS1R2 (Homo sapiens, UniProt Q8TE23)", "T1 construct": "VFT domain of TAS1R2 in the TAS1R2/TAS1R3 heterodimer; with TAS1R3 (human; also mouse TAS1R3)", "T1 sequence (Q8TE23 22-839)": "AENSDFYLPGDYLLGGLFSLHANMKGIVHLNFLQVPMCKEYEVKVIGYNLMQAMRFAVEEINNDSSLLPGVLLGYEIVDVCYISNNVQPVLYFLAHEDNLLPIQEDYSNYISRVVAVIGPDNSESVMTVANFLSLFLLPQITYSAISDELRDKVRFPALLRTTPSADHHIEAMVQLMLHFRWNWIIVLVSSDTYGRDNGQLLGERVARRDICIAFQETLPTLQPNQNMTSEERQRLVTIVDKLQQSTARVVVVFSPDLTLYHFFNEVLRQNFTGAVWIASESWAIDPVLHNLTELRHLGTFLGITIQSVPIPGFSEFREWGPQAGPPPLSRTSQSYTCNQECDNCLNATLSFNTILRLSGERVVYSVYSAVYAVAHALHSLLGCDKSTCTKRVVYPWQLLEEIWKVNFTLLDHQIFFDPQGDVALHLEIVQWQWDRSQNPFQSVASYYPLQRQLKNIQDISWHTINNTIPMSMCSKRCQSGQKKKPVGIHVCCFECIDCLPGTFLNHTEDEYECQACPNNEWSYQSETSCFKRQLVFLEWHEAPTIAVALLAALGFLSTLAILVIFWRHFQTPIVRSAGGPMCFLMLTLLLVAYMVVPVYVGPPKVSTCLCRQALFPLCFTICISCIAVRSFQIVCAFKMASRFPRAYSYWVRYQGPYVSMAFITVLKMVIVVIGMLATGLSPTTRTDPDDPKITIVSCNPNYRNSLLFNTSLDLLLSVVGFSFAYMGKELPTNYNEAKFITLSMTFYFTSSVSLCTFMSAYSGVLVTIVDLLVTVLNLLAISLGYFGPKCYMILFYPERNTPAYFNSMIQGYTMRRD", "T1 sequence (Q7RTX0 21-852 partner)": "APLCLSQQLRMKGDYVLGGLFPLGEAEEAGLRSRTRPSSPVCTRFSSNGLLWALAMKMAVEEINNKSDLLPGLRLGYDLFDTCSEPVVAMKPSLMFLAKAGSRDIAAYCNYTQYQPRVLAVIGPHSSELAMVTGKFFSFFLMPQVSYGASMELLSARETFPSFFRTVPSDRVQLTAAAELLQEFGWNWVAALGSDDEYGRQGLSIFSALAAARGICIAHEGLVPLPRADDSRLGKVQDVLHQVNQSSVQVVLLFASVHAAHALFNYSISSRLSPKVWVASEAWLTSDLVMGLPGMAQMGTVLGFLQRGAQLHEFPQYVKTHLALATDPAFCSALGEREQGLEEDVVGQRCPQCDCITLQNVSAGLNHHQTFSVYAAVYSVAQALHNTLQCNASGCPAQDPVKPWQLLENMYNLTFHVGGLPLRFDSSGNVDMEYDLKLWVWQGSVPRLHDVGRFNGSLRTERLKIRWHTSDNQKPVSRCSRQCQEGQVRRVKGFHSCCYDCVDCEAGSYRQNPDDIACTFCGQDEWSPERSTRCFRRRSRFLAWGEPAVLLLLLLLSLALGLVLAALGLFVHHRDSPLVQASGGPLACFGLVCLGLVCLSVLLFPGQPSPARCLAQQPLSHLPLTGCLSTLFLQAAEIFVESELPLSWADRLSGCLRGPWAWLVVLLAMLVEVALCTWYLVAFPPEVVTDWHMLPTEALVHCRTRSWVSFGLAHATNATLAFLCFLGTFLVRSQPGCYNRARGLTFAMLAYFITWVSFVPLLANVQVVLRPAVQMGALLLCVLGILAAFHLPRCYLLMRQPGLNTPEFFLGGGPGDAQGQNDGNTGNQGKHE", "test": "cryo-EM structures of human/human and human/mouse receptor with advantame; EC50 from cell-based calcium imaging (human/human)", "description": "cryo-EM structures of human/human and human/mouse receptor with advantame; EC50 from cell-based calcium imaging (human/human) on TAS1R2 | Advantame also yields well-defined ligand density in the TAS1R2 VFT pocket of both human/mouse and human/human receptors"}, "TAS1R2 [2]": {"biological_target": "T2, TAS1R2 (Homo sapiens, UniProt Q8TE23)", "T2 construct": "TAS1R2/TAS1R3 heterodimer; with TAS1R3 (human)", "T2 sequence (Q8TE23 20-839)": "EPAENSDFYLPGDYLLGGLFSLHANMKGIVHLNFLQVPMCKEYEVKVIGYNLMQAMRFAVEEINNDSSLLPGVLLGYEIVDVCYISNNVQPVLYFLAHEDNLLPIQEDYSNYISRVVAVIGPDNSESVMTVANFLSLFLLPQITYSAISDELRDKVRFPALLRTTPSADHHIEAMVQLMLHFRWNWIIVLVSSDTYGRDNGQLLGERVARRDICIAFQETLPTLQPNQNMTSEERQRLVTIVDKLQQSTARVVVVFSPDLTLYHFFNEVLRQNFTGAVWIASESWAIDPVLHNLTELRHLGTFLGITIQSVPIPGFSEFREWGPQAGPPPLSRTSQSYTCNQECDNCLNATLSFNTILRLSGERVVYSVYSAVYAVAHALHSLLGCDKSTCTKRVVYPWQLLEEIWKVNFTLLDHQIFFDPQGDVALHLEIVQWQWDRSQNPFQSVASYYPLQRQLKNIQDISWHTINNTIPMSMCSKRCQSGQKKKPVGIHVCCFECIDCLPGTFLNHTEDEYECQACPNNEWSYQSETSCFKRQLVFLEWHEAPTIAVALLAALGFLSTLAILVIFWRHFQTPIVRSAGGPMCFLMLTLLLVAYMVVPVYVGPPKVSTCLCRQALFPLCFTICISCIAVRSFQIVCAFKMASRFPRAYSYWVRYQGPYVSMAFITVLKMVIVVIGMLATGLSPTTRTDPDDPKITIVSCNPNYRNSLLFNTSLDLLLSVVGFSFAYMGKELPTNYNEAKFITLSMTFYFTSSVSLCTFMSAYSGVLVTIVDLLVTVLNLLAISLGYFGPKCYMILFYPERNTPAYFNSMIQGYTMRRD", "T2 sequence (Q7RTX0 21-852 partner)": "T1 sequence (Q7RTX0 21-852 partner)", "test": "cell-based calcium imaging of the expressed human/human receptor"}}}
{"smiles": "COC(=O)[C@H](Cc1ccccc1)NC(=O)[C@H](CC(=O)O)NCCCc1ccc(OC)c(O)c1", "note": "[Adv, advantame]", "values": [{"measurement": "EC50", "setting": "TAS1R2 [1]", "value": 0.9, "unit": "µM"}]}
{"smiles": "COC(=O)[C@H](Cc1ccccc1)NC(=O)[C@H](CC(=O)O)NCCC(C)(C)C", "note": "[neotame]", "values": [{"measurement": "EC50", "setting": "TAS1R2 [2]", "value": 2.7, "unit": "µM"}]}
